In patent US20230241023A1, “STABILIZATION OF 1,2,4-TRIOXANE COMPOUNDS BY CHLOROGENIC ACIDS” (Artemiflow GmbH, priority 2020, published 2023):

Experiment: Stability of artemisinin in presence of additives (heating in aqueous solution with glucose, 1H NMR quantification)
Assay type: physicochemical
Details: glucose 1 mol equivalent, 93° C. for 90 minutes, open to the atmosphere
From the text: Solvents were obtained from commercial suppliers and used without further purification. Dried leaves of Artemisia annua were obtained from ArtemiLife Corp. and Artemisinin was previously prepared and purified by crystallization using the protocols detailed in Horváth, Z.; Horosanskaia, E.; Lee, J. W.; Lorenz, H.; Gilmore, K.; Seeberger, P. H.; Seidel-Morgenstern, A. Recovery of Artemisinin from a Complex Reaction Mixture Using Continuous Chromatography and Crystallization. Org. Process Res. Dev. 2015, 19, 624-634. The Artemisinin crystals obtained thereby were ground prior to use.
Ground coffee used in extractions was preground 100% Arabica beans from Café Intención. Coffee was prepared in a Rowenta C T 3818 Milano coffee maker using size 4 coffee filters (Melitta brand). Coffee beans (100% Arabica) were preground from. 100 g of ground coffee was added to the cone coffee filter in the machine and 1350 mL of water used to make the coffee using the single setting. Coffee was then transferred to a thermos, stored at room temperature, and used without further modification.
Two solvents were tested, tap water and premade black coffee. […] All mixtures were heated to 93° C. for 90 minutes in 10 mL glass vials open to the atmosphere. Halfway through heating, 1-2 mL of tap water was added to compensate for evaporation. […]

C[C@@H]1CC[C@H]2[C@@H](C)C(=O)O[C@@H]3O[C@@]4(C)CC[C@@H]1[C@]32OO4 [artemisinin]
clean loss of artemisinin (1H NMR) (Example 1 (for comparison): 5 mL tap water): 32%
clean loss of artemisinin (1H NMR) (Example 2 (inventive): 5 mL premade black coffee (source of chlorogenic acids)): 19%
